# Measured values reported in paper PMC6534257, “Leishmania infantum arginase: biochemical characterization and inhibition by naturally occurring phenolic substances” (Journal of Enzyme Inhibition and Medicinal Chemistry, 2019).
# Several values for one entry are separate records, joined by “and”; a condition that tells them apart may be missing. Identical values can stand only once. Entries after “also recorded” stand apart in the source; their conditions may differ. Like-named read-outs stand apart in the source and are kept apart here.
# Key:
# L. amazonensis arginase = details: cited from earlier work; for inhibition of L. amazonensis arginase activity: final concentration of 20 μM ref 13; for effect on L. amazonensis arginase (in words): phenolics without catechol group ref 15; for IC50: read-out: IC50 against L. amazonensis arginase
# [1] = test system: L. infantum promastigotes; assay: Inhibition of L. infantum promastigotes growth (resazurin); format: cell-based, Leishmania infantum; details: for SI PRO (selectivity index CC50/IC50, promastigotes): CC50 RAW 264.7 / IC50 promastigotes; for IC50: Leishmania infantum, read-out: Promastigotes IC50±SE; for IC50 / Promastigotes IC50±SE: 96 h, 26 °C, resazurin
# Protocol: The parasite growth inhibition assays were performed on 96-well microplates, where the selected ARGLi inhibitors were previously diluted (1–200 μg/mL). Subsequently, promastigote forms of L. infantum collected in late logarithmic phase (96 h) were added to microplates at the final concentration of 10^6 parasites/mL. Microplates were incubated at 26 °C for 96 h. After the incubation period, parasites viability was determined using 0.005% resazurin[30]. The 50% inhibitory concentration (IC50) was determined from the dose-response curves generated from the data.
# [2] = Cytotoxicity in RAW 264.7 macrophages (MTT); format: cell-based; details: mouse, read-out: RAW 264.7 CC50±SE
# Protocol: (§1) RAW 264.7 macrophages were cultured in polystyrene culture flasks containing DMEM medium supplemented with 10% FBS at 37 °C and 5% CO2 atmosphere. For cytotoxic evaluation, 48 h cultured cells were harvested, washed with culture medium, and distributed into 96-well culture plates at 10^5 cells/well concentration. The cells were allowed to adhere for 2 h prior to the addition of increasing inhibitor concentrations (31–1000 µg/mL). Treated cell cultures were incubated for 48 h under the same experimental conditions. After this period, cell viability was determined by colorimetric assay using MTT solution (5 mg/mL) as an indicator. The 50% cytotoxic concentration (CC50) was calculated by analysing the dose-response curves generated from the data.
# [3] = test system: L. infantum intracellular amastigotes; assay: Intracellular anti-amastigote activity in infected RAW 264.7 macrophages; format: cell-based, Leishmania infantum; details: for SI AMA (selectivity index CC50/IC50, intracellular amastigotes): CC50 RAW 264.7 / IC50 intracellular amastigotes; for IC50: Leishmania infantum, RAW264.7, 48 h, read-out: Intracellular amastigotes IC50±SE
# Protocol: (§2) The intracellular anti-amastigote activity was performed according to previously described procedures[31] with some modifications. Initially, RAW 264.7 macrophages were distributed in 96-well plates and, after adherence (incubation for 2 h), cells were washed twice with phosphate buffer saline (PBS, pH 7.2). Then, the adherent cells were infected with promastigote forms of L. infantum at the stationary phase of growth in a proportion of 10 parasites/macrophage. After 4 h of interaction at 37 °C and 5% CO2 atmosphere, free parasites were washed away with PBS and infected macrophages were incubated for another 24 h to allow differentiation into amastigotes. After this time, infected cells were treated for 48 h with increasing concentrations of the selected inhibitor. Subsequently, the culture supernatant was collected for evaluation of nitric oxide production using the Griess reaction. Cells were washed with PBS, then Schneider’s medium supplemented with 5% FBS was added and the plate was incubated at 26 °C for 72 h. The parasite survival was estimated by viability of differentiated promastigote forms recovered from the cultures using MTT (5 mg/mL). The results were expressed as the percentage of viability in relation to that obtained for the control (100%). The IC50 for amastigote forms was calculated from the dose-response curves generated from the data.
# [4] = test system: L. infantum-infected RAW 264.7 macrophages; assay: Nitric oxide production by infected macrophages (Griess reaction); format: cell-based; details: for increase in nitrite levels in comparison to the control: 48 h; for effect on NO production by infected macrophages (in words): 48 h treatment
# Protocol: as §2
# In order to determine if ARGLi inhibitors were capable of modulating the host cell response, RAW 264.7 macrophages were infected with promastigote forms of L. infantum and treated with different concentrations of inhibitors for 48 h. After treatment, NO production was measured. […] This increase is similar to that observed for the reference drug Fungizone® (Figure 5(B)). The effect of caffeic acid on NO production may be a result of macrophage arginase inhibition and consequent oxidation of accumulated L-arginine by inducible NO synthase (iNOS).
# Figure 5. Nitric oxide production by L. infantum-infected RAW 264.7 macrophages treated with different concentrations of ARGLi inhibitors. (A) Treatment with 3.1–200 μg/mL of rosmarinic acid (black), caffeic acid (light gray), and catechin (dark gray). (B) Treatment with 0.062–0.5 μg/mL of the reference drug fungizone. Control (white) represents the production of nitric oxide by infected and untreated macrophages. Nitrite concentration was measured by the Griess reaction and data represent mean ± SE of two independent experiments.
# bovine hepatic arginase = test system: bovine hepatic arginase; set-up: method as in PMID 27776374; details: cited from earlier work; for percentage of inhibition of bovine hepatic arginase: 100 μM ref 37
# [5] = test system: L. amazonensis promastigotes; details: cited from earlier work
# [6] = test system: intracellular amastigotes of L. amazonensis; set-up: method as in PMID 24906989; details: cited from earlier work
# [7] = test system: BALB/c mice peritoneal macrophages; details: cited from earlier work
# L. amazonensis = details: cited from earlier work; for reduction of lesion size and parasite burden (in words): compared with reference drug Glucantime ref 42; for mice death or loss of body weight (in words): treated BALB/c mice ref 42
# [8] = test system: axenic amastigote forms of L. donovani; set-up: method as in PMID 16569852; details: cited from earlier work
# [9] = test system: Leishmania infantum arginase (ARGLi); assay: ARGLi inhibition by phenolic substances (urea production); format: biochemical; details: 100 µM substance, 50 mM L-arginine, pH 9.5, 37 °C, 5 min
# RAW 264.7 macrophages = assay: Cytotoxicity in RAW 264.7 macrophages (MTT); format: cell-based; details: 48 h
# Protocol: as §1
# ARGLi = details: read-out: Km for L-arginine; 1 to 50 mM L-arginine, pH 9.5, 37 °C
# Protocol: ARGLi (0.2 µg/mL) was incubated with L-arginine at concentrations ranging from 1 to 50 mM in 50 mM CHES buffer (pH 9.5) at 37 °C for 5 min. Vmax and Km values were determined by the analysis of the initial velocity versus substrate concentration curve using the Michaelis–Menten equation in Graph Prism 6.
# [10] = infected RAW 264.7, 48 h treatment
smiles,measurement,setting,value
"O=C(/C=C/c1ccc(O)c(O)c1)O[C@@H]1C[C@](O)(C(=O)O)C[C@@H](O)[C@H]1O [Chlorogenic acid, chlorogenic acid]",inhibition of L. amazonensis arginase activity,L. amazonensis arginase,more than 50%
"O=C(O)/C=C/c1ccc(O)c(O)c1 [Caffeic acid, caffeic acid]","SI PRO (selectivity index CC50/IC50, promastigotes)",[1],20.05
same,IC50,[1],11 µg/mL and 60.8 µM
same,CC50 at 48 h,[2]; RAW 264.7 macrophages,220 µg/mL and 1.22 mM
same,"SI AMA (selectivity index CC50/IC50, intracellular amastigotes)",[3],55.69
same,IC50,[3]; [10],3.95 µg/mL and 21.9 µM
same,increase in nitrite levels in comparison to the control,[4]; 100 µg/mL,234.6%
same,increase in nitrite levels in comparison to the control,[4]; 200 µg/mL,311.5%
same,effect on NO production by infected macrophages (in words),[4],significantly increased nitric oxide production; also recorded: significantly increased NO production
same,percentage of inhibition of bovine hepatic arginase,bovine hepatic arginase,61.3 ± 4.1%
same,IC50,bovine hepatic arginase,86.7 µM
same,IC50 against L. amazonensis promastigote forms,[5],0.9 ± 0.2 µg/mL
same,IC50 for intracellular amastigotes of L. amazonensis,[6],2.9 ± 0.3 µg/mL
same,CC50 for BALB/c mice peritoneal macrophages,[7],32.5 ± 2.0 µg/mL
same,reduction of lesion size and parasite burden (in words),L. amazonensis,more effective in reducing lesion size and parasite burden
same,mice death or loss of body weight (in words),L. amazonensis,did not lead to mice death or significant loss of body weight
"COc1cc(-c2oc3cc(O)cc(O)c3c(=O)c2O)ccc1O [Isorhamnetin, isorhamnetin]",Promastigotes IC50±SE,[1],258.7 ± 9.50 µg/mL
same,IC50,[1],263 µg/mL and 818 µM
same,CC50 at 48 h,[2],> 1000 µg/mL and > 3 mM
same,IC50 axenic amastigote forms of L. donovani,[8],3.8 µg/mL
O=c1cc(-c2ccc(O)cc2)oc2c([C@@H]3O[C@H](CO)[C@@H](O)[C@H](O)[C@H]3O)c(O)cc(O)c12 [vitexin],effect on L. amazonensis arginase (in words),L. amazonensis arginase,little effect
"O=c1c(O)c(-c2ccc(O)cc2)oc2cc(O)cc(O)c12 [kaempferol, reference compound]",IC50,L. amazonensis arginase,50 µM
same,IC50 against L. donovani,[8],2.9 µg/mL
Oc1cc(O)c2c(c1)O[C@H](c1ccc(O)c(O)c1)[C@@H](O)C2 [(+)-catechin],inhibition of L. amazonensis arginase activity,L. amazonensis arginase,more than 50%
O=c1cc(-c2ccc(O)c(O)c2)oc2cc(O)c([C@@H]3O[C@H](CO)[C@@H](O)[C@H](O)[C@H]3O)c(O)c12 [isoorientin],IC50,L. amazonensis arginase,9 ± 1 µM
"COc1cc(O)c2c(=O)c(O)c(-c3ccc(O)c(O)c3)oc2c1 [Rhamnetin, rhamnetin]",percentage of inhibition of ARGLi activity,[9],~56%
same,percentage of inhibition of ARGLi activity,[9]; listed as rhamnetin,more than 50%
same,Promastigotes IC50±SE,[1],263.2 ± 3.87 µg/mL
same,IC50,[1],259 µg/mL and 832 µM
same,CC50 at 48 h,[2]; RAW 264.7 macrophages,> 1000 µg/mL and > 3 mM
same,IC50 axenic amastigote forms of L. donovani,[8],4.6 µg/mL
O=c1c(O[C@@H]2O[C@H](CO)[C@@H](O)[C@H](O)[C@H]2O)c(-c2ccc(O)c(O)c2)oc2cc(O)cc(O)c12 [isoquercitrin],inhibition of L. amazonensis arginase activity,L. amazonensis arginase,more than 50%
Oc1cc(O)c2c(c1)O[C@H](c1ccc(O)c(O)c1)[C@H](O)C2 [(−)-epicatechin],inhibition of L. amazonensis arginase activity,L. amazonensis arginase,more than 50%
O=c1c(O)c(-c2ccccc2)oc2cc(O)cc(O)c12 [galangin],IC50,L. amazonensis arginase,100 µM
O=c1cc(-c2ccc(O)c(O)c2)oc2c([C@@H]3O[C@H](CO)[C@@H](O)[C@H](O)[C@H]3O)c(O)cc(O)c12 [orientin],IC50,L. amazonensis arginase,16 ± 2 µM
O=c1cc(-c2ccc(O)cc2)oc2cc(O)cc(O)c12 [apigenin],effect on L. amazonensis arginase (in words),L. amazonensis arginase,little effect
"Oc1cc(O)c2c(c1)O[C@H](c1ccc(O)c(O)c1)[C@@H](O)C2 [Catechin, catechin, reference compound]",percentage of inhibition of ARGLi activity,[9],49.02 ± 14.92%
same,Promastigotes IC50±SE,[1],114.8 ± 14.65 µg/mL
same,"SI PRO (selectivity index CC50/IC50, promastigotes)",[1],2.23
same,IC50,[1],115 µg/mL and 395 µM
same,CC50 at 48 h,[2]; RAW 264.7 macrophages,257 µg/mL and 885 µM
same,RAW 264.7 CC50±SE,RAW 264.7 macrophages,256.98 ± 0.64 µg/mL
same,"SI AMA (selectivity index CC50/IC50, intracellular amastigotes)",[3],3.08
same,IC50,[3]; [10],83.2 µg/mL and 287 µM
same,Intracellular amastigotes IC50±SE,[3]; [10],83.28 ± 10.6 µg/mL
same,effect on NO production by infected macrophages (in words),[4],did not affect NO production
same,IC50 for L. amazonensis promastigotes,[5]; catechin isolated from Stryphnodendron obovatum stem bark ref 47,43.2 ± 2.1 µg/mL
O=c1cc(-c2ccc(O)cc2)oc2cc(O)c([C@@H]3O[C@H](CO)[C@@H](O)[C@H](O)[C@H]3O)c(O)c12 [isovitexin],effect on L. amazonensis arginase (in words),L. amazonensis arginase,little effect
"O=C(/C=C/c1ccc(O)c(O)c1)O[C@H](Cc1ccc(O)c(O)c1)C(=O)O [Rosmarinic acid, rosmarinic acid]","SI PRO (selectivity index CC50/IC50, promastigotes)",[1],8.56
same,IC50,[1],20.6 µg/mL and 57.3 µM
same,CC50 at 48 h,[2],177 µg/mL and 491 µM
same,"SI AMA (selectivity index CC50/IC50, intracellular amastigotes)",[3],61.79
same,IC50,[3]; [10],2.86 µg/mL and 7.9 µM
same,effect on NO production by infected macrophages (in words),[4],did not affect NO production
same,IC50 against L. amazonensis promastigote forms,[5],0.2 ± 0.1 µg/mL
same,IC50 for intracellular amastigotes of L. amazonensis,[6],1.7 ± 0.4 µg/mL
same,CC50 for BALB/c mice peritoneal macrophages,[7],33.5 ± 1.4 µg/mL
same,reduction of lesion size and parasite burden (in words),L. amazonensis,more effective in reducing lesion size and parasite burden
same,mice death or loss of body weight (in words),L. amazonensis,did not lead to mice death or significant loss of body weight
N=C(N)NCCC[C@H](N)C(=O)O [L-arginine],Km,ARGLi,5.1 ± 1.1 mM
O=c1c(O)c(-c2ccc(O)c(O)c2)oc2cc(O)ccc12 [fisetin],IC50,L. amazonensis arginase,1.4 ± 0.3 µM
O=c1cc(-c2ccc(O)c(O)c2)oc2cc(O)cc(O)c12 [luteolin],IC50,L. amazonensis arginase,9 ± 1 µM
"COc1ccc(/C=C/c2cc(O)cc(O[C@@H]3O[C@H](CO)[C@@H](O)[C@H](O)[C@H]3O)c2)cc1O [Rhaponticin, rhaponticin]",percentage of inhibition of ARGLi activity,[9],more than 50%
same,IC50,[1],> 400 µg/mL and > 1 mM
same,antileishmanial activity against promastigotes (in words),[1]; highest concentration tested,did not inhibit promastigote growth at the highest concentration tested
same,CC50 at 48 h,[2]; RAW 264.7 macrophages,825 µg/mL and 1.96 mM
"O=c1c(O)c(-c2ccc(O)c(O)c2)oc2cc(O)cc(O)c12 [Quercetin, quercetin, reference compound]",percentage of inhibition of ARGLi activity,[9],67.05 ± 10.36%
same,IC50,L. amazonensis arginase,4.3 µM
same,IC50 against L. donovani,[8],1 µg/mL
same,percentage of inhibition of bovine hepatic arginase,bovine hepatic arginase,64.4 ± 2.5%
same,IC50,bovine hepatic arginase,31.2 µM
